# In patent US9555039B2, “Piperidine derivatives and compositions for the inhibition of nicotinamide phosphoribosyltransferase (NAMPT)” (Forma TM, LLC., priority 2011, dated 2017):
# Experiments:
# A2780 cells = assay: In-vitro cell proliferation assay (SRB, 72 hours); type: cell-based; settings: Homo sapiens, sulforhodamine B (SRB) assay
# Summary of the method: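 Viable cells measured by TCA fixation and SRB staining, absorbance 570 nm; % inhibition vs DMSO control after media-only background subtraction, interpolated between two bracketing concentrations.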
# [1] = molecular target: T1, Recombinant His-tagged NAMPT (Homo sapiens, UniProt P43490); assay: Biochemical inhibition assay: NAMPT enzymatic reaction, NMN quantified by mass spectrometry; settings: 33 nM NAMPT, 1 μM NAM, 100 μM PRPP, 2.5 mM ATP, 30 minutes at room temperature; read-out: Biochem IC50
# T1 construct: His; host or cells: E. coli
# Summary of the method: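 Reaction 30 min at room temperature with 1 μM NAM, 100 μM PRPP, 2.5 mM ATP (final), quenched with formic acid. NMN quantified by RapidFire electrospray MS, normalized to L-cystathionine; IC50 from percent inhibition versus DMSO.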
# T1 sequence (P43490 whole entry): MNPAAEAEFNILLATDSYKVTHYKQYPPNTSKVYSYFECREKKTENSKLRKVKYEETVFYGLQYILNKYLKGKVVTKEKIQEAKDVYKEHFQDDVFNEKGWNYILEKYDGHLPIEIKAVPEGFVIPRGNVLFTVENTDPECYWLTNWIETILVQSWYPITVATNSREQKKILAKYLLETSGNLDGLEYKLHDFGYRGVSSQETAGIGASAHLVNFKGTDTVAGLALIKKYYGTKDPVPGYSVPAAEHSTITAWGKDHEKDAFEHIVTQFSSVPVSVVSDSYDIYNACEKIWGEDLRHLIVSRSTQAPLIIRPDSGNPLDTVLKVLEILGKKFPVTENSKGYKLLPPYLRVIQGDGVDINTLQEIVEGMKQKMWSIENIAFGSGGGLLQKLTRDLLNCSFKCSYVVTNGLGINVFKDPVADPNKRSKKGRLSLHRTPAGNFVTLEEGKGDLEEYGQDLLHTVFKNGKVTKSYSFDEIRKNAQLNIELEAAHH
SMILES,IC50 (A2780 cells),IC50 [1]
"O=C(NCCCCC1CCN(C(=O)c2ccc(F)c(F)c2)CC1)c1cc2cnccc2[nH]1 [N-(4-{1-[(3,4-difluorophenyl)carbonyl]piperidin-4-yl}butyl)-1H-pyrrolo[3,2-c]pyridine-2-carboxamide]",20.6 nM,56 nM
"O=C(NCCCCC1CCN(C(=O)c2ccc(F)c(F)c2)CC1)c1ccc2nccn2c1 [N-(4-{1-[(3,4-difluorophenyl)carbonyl]piperidin-4-yl}butyl)imidazo[1,2-a]pyridine-6-carboxamide]",66.2 nM,19 nM
"O=C(NCCCCC1CCN(C(=O)c2ccc(F)c(F)c2)CC1)c1cc2ccncc2s1 [N-(4-{1-[(3,4-difluorophenyl)carbonyl]piperidin-4-yl}butyl)thieno[2,3-c]pyridine-2-carboxamide]",100 to 1000 nM,22.9 nM
"COc1ccc(C(=O)N2CCC(CCCCNC(=O)c3cc4cnccc4[nH]3)CC2)cc1OC [N-(4-{1-[(3,4-dimethoxyphenyl)carbonyl]piperidin-4-yl}butyl)-1H-pyrrolo[3,2-c]pyridine-2-carboxamide]",3 nM,68.6 nM
"COc1ccc(C(=O)N2CCC(CCCCNC(=O)c3ccc4nccn4c3)CC2)cc1OC [N-(4-{1-[(3,4-dimethoxyphenyl)carbonyl]piperidin-4-yl}butyl)imidazo[1,2-a]pyridine-6-carboxamide]",2.9 nM,38.5 nM
"COc1ccc(C(=O)N2CCC(CCCCNC(=O)c3cc4ccncc4s3)CC2)cc1OC [N-(4-{1-[(3,4-dimethoxyphenyl)carbonyl]piperidin-4-yl}butyl)thieno[2,3-c]pyridine-2-carboxamide]",6.9 nM,32.6 nM
"O=C(NCCCCC1CCN(C(=O)c2cc(Cl)cc(Cl)c2)CC1)c1cc2cnccc2[nH]1 [N-(4-{1-[(3,5-dichlorophenyl)carbonyl]piperidin-4-yl}butyl)-1H-pyrrolo[3,2-c]pyridine-2-carboxamide]",13 nM,81.3 nM
"O=C(NCCCCC1CCN(C(=O)c2cc(Cl)cc(Cl)c2)CC1)c1ccc2nccn2c1 [N-(4-{1-[(3,5-dichlorophenyl)carbonyl]piperidin-4-yl}butyl)imidazo[1,2-a]pyridine-6-carboxamide]",32.9 nM,61.6 nM
"O=C(NCCCCC1CCN(C(=O)c2cc(Cl)cc(Cl)c2)CC1)c1cc2ccncc2s1 [N-(4-{1-[(3,5-dichlorophenyl)carbonyl]piperidin-4-yl}butyl)thieno[2,3-c]pyridine-2-carboxamide]",51.3 nM,30 nM
"COc1cc(OC)cc(C(=O)N2CCC(CCCCNC(=O)c3cc4cnccc4[nH]3)CC2)c1 [N-(4-{1-[(3,5-dimethoxyphenyl)carbonyl]piperidin-4-yl}butyl)-1H-pyrrolo[3,2-c]pyridine-2-carboxamide]",2.6 nM,74.1 nM
"COc1cc(OC)cc(C(=O)N2CCC(CCCCNC(=O)c3cc4ccncc4s3)CC2)c1 [N-(4-{1-[(3,5-dimethoxyphenyl)carbonyl]piperidin-4-yl}butyl)thieno[2,3-c]pyridine-2-carboxamide]",20.2 nM,57.1 nM
"O=C(NCCCCC1CCN(S(=O)(=O)c2cccc(Cl)c2)CC1)c1cc2cnccc2[nH]1 [N-(4-{1-[(3-chlorobenzene)sulfonyl]piperidin-4-yl}butyl)-1H-pyrrolo[3,2-c]pyridine-2-carboxamide]",27.7 nM,38.8 nM
"O=C(NCCCCC1CCN(C(=O)c2cccc(Cl)c2)CC1)c1ccc2nccn2c1 [N-(4-{1-[(3-chlorophenyl)carbonyl]piperidin-4-yl}butyl)imidazo[1,2-a]pyridine-6-carboxamide]",22.3 nM,17.1 nM
"O=C(NCCCCC1CCN(C(=O)c2cccc(Cl)c2)CC1)c1cc2ccncc2s1 [N-(4-{1-[(3-chlorophenyl)carbonyl]piperidin-4-yl}butyl)thieno[2,3-c]pyridine-2-carboxamide]",45.5 nM,33.4 nM
"CCOc1cccc(C(=O)N2CCC(CCCCNC(=O)c3cc4cnccc4[nH]3)CC2)c1 [N-(4-{1-[(3-ethoxyphenyl)carbonyl]piperidin-4-yl}butyl)-1H-pyrrolo[3,2-c]pyridine-2-carboxamide]",11 nM,85.1 nM
"CCOc1cccc(C(=O)N2CCC(CCCCNC(=O)c3ccc4nccn4c3)CC2)c1 [N-(4-{1-[(3-ethoxyphenyl)carbonyl]piperidin-4-yl}butyl)imidazo[1,2-a]pyridine-6-carboxamide]",13.2 nM,10.2 nM
"CCOc1cccc(C(=O)N2CCC(CCCCNC(=O)c3cc4ccncc4s3)CC2)c1 [N-(4-{1-[(3-ethoxyphenyl)carbonyl]piperidin-4-yl}butyl)thieno[2,3-c]pyridine-2-carboxamide]",76.5 nM,39.1 nM
"Cc1c(F)cccc1C(=O)N1CCC(CCCCNC(=O)c2cc3cnccc3[nH]2)CC1 [N-(4-{1-[(3-fluoro-2-methylphenyl)carbonyl]piperidin-4-yl}butyl)-1H-pyrrolo[3,2-c]pyridine-2-carboxamide]",3.1 nM,20.5 nM

SMILES,IC50 (A2780 cells),IC50 [1]
"Cc1c(F)cccc1C(=O)N1CCC(CCCCNC(=O)c2ccc3nccn3c2)CC1 [N-(4-{1-[(3-fluoro-2-methylphenyl)carbonyl]piperidin-4-yl}butyl)imidazo[1,2-a]pyridine-6-carboxamide]",3.5 nM,13.1 nM
"Cc1c(F)cccc1C(=O)N1CCC(CCCCNC(=O)c2cc3ccncc3s2)CC1 [N-(4-{1-[(3-fluoro-2-methylphenyl)carbonyl]piperidin-4-yl}butyl)thieno[2,3-c]pyridine-2-carboxamide]",3.2 nM,6.8 nM
"COc1ccc(C(=O)N2CCC(CCCCNC(=O)c3cc4cnccc4[nH]3)CC2)cc1F [N-(4-{1-[(3-fluoro-4-methoxyphenyl)carbonyl]piperidin-4-yl}butyl)-1H-pyrrolo[3,2-c]pyridine-2-carboxamide]",21 nM,63.1 nM
"COc1ccc(C(=O)N2CCC(CCCCNC(=O)c3ccc4nccn4c3)CC2)cc1F [N-(4-{1-[(3-fluoro-4-methoxyphenyl)carbonyl]piperidin-4-yl}butyl)imidazo[1,2-a]pyridine-6-carboxamide]",65.2 nM,20.2 nM
"COc1ccc(C(=O)N2CCC(CCCCNC(=O)c3cc4ccncc4s3)CC2)cc1F [N-(4-{1-[(3-fluoro-4-methoxyphenyl)carbonyl]piperidin-4-yl}butyl)thieno[2,3-c]pyridine-2-carboxamide]",100 to 1000 nM,71.4 nM
"Cc1ccc(C(=O)N2CCC(CCCCNC(=O)c3cc4cnccc4[nH]3)CC2)cc1F [N-(4-{1-[(3-fluoro-4-methylphenyl)carbonyl]piperidin-4-yl}butyl)-1H-pyrrolo[3,2-c]pyridine-2-carboxamide]",22.4 nM,77.1 nM
"Cc1ccc(C(=O)N2CCC(CCCCNC(=O)c3cc4ccncc4s3)CC2)cc1F [N-(4-{1-[(3-fluoro-4-methylphenyl)carbonyl]piperidin-4-yl}butyl)thieno[2,3-c]pyridine-2-carboxamide]",100 to 1000 nM,41.7 nM
"O=C(NCCCCC1CCN(C(=O)c2cccc(F)c2)CC1)c1cc2cnccc2[nH]1 [N-(4-{1-[(3-fluorophenyl)carbonyl]piperidin-4-yl}butyl)-1H-pyrrolo[3,2-c]pyridine-2-carboxamide]",3.3 nM,16.4 nM
"O=C(NCCCCC1CCN(C(=O)c2cccc(F)c2)CC1)c1ccc2nccn2c1 [N-(4-{1-[(3-fluorophenyl)carbonyl]piperidin-4-yl}butyl)imidazo[1,2-a]pyridine-6-carboxamide]",10.3 nM,9.2 nM
"O=C(NCCCCC1CCN(C(=O)c2cccc(F)c2)CC1)c1cc2ccncc2s1 [N-(4-{1-[(3-fluorophenyl)carbonyl]piperidin-4-yl}butyl)thieno[2,3-c]pyridine-2-carboxamide]",7.4 nM,7.7 nM
"COc1cccc(C(=O)N2CCC(CCCCNC(=O)c3cc4ccncc4s3)CC2)c1 [N-(4-{1-[(3-methoxyphenyl)carbonyl]piperidin-4-yl}butyl)thieno[2,3-c]pyridine-2-carboxamide]",11 nM,26.1 nM
"COc1cc(Cl)ccc1C(=O)N1CCC(CCCCNC(=O)c2cc3cnccc3[nH]2)CC1 [N-(4-{1-[(4-chloro-2-methoxyphenyl)carbonyl]piperidin-4-yl}butyl)-1H-pyrrolo[3,2-c]pyridine-2-carboxamide]",6.1 nM,62.1 nM
"COc1cc(Cl)ccc1C(=O)N1CCC(CCCCNC(=O)c2ccc3nccn3c2)CC1 [N-(4-{1-[(4-chloro-2-methoxyphenyl)carbonyl]piperidin-4-yl}butyl)imidazo[1,2-a]pyridine-6-carboxamide]",27 nM,80.6 nM
"COc1cc(Cl)ccc1C(=O)N1CCC(CCCCNC(=O)c2cc3ccncc3s2)CC1 [N-(4-{1-[(4-chloro-2-methoxyphenyl)carbonyl]piperidin-4-yl}butyl)thieno[2,3-c]pyridine-2-carboxamide]",13 nM,15.5 nM
"O=C(NCCCCC1CCN(S(=O)(=O)c2ccc(Cl)cc2)CC1)c1cc2cnccc2[nH]1 [N-(4-{1-[(4-chlorobenzene)sulfonyl]piperidin-4-yl}butyl)-1H-pyrrolo[3,2-c]pyridine-2-carboxamide]",27.5 nM,49.9 nM
"O=C(NCCCCC1CCN(C(=O)c2ccc(Cl)cc2)CC1)c1cc2cnccc2[nH]1 [N-(4-{1-[(4-chlorophenyl)carbonyl]piperidin-4-yl}butyl)-1H-pyrrolo[3,2-c]pyridine-2-carboxamide]",65.7 nM,114 nM
"O=C(NCCCCC1CCN(C(=O)c2ccc(Cl)cc2)CC1)c1ccc2nccn2c1 [N-(4-{1-[(4-chlorophenyl)carbonyl]piperidin-4-yl}butyl)imidazo[1,2-a]pyridine-6-carboxamide]",100 to 1000 nM,84.6 nM
